Test results taken from ChEMBL document CHEMBL5726044, “Imidazopyridazines as Akt kinase inhibitors” (2017).

What was measured:
[1] = target: RAC-alpha serine/threonine-protein kinase (Homo sapiens, UniProt P31749); test: (§1) Kinase Assay: For the assay 50 nl of a 100 fold concentrated solution of the test compound in DMSO was pipetted into a black low volume 384 well microtiter plate (Greiner Bio-One, Frickenhausen, Germany), 2 μl of a solution of Akt1 in assay buffer [50 mM TRIS/HCl pH 7.5, 5 mM MgCl2, 1 mM dithiothreitol, 0.02% (v/v) Triton X-100 (Sigma)] were added and the mixture was incubated for 15 min at 22° C. to allow pre-binding of the test compounds to the enzyme before the start of the kinase reaction. Then the kinase reaction was started by the addition of 3 μl of a solution of adenosine-tri-phosphate (ATP, 16.7 μM=>final conc. in the 5 μl assay volume is 10 μM) and substrate (1.67 μM=>final conc. in the 5 μl assay volume is 1 μM) in assay buffer and the resulting mixture was incubated for a reaction time of 60 min at 22° C. The concentration of Akt1 in the assay was adjusted depending of the activity of the enzyme lot and was chosen appropriate to have the assay in the linear range, typical enzyme concentrations were in the range of about 0.05 ng/μl (final conc. in the 5 μl assay volume). The reaction was stopped by the addition of 5 μl of a solution of HTRF detection reagents (200 nM streptavidine-XL665 [Cisbio] and 1.5 nM anti-phosho-Serine antibody [Millipore, cat. #35-001] and 0.75 nM LANCE Eu-W 1024 labeled anti-mouse IgG antibody [Perkin Elmer]) in an aqueous EDTA-solution (100 mM EDTA, 0.1% (w/v) bovine serum albumin in 50 mM HEPES/NaOH pH 7.5). The resulting mixture was incubated 1 h at 22° C. to allow the binding of the biotinylated phosphorylated peptide to the streptavidine-XL665 and the antibodies. Subsequently the amount of phosphorylated substrate was evaluated by measurement of the resonance energy transfer from the anti-mouse-IgG-Eu-Chelate to the streptavidine-XL665. Therefore, the fluorescence emissions at 620 nm and 665 nm after excitation at 350 nm was measured in a HTRF reader, e.g. a Rubystar (BMG Labtechnologies, Offenburg, Germany) or a Viewlux (Perkin-Elmer).
[2] = target: RAC-beta serine/threonine-protein kinase (Homo sapiens, UniProt P31751); test: as §1, with “Assay: His-tagged human recombinant kinase full-length Akt2 expressed in insect cells and activated by PDK1 was purchased form Invitrogen (part number PV 3975). As substrate for the kinase reaction the biotinylated peptide biotin-Ahx-[…] (C-terminus in amide form) was used which can be purchased e.g. from the company Biosynthan GmbH (Berlin-Buch, Germany).” for “Assay:”, “Akt2” for “Akt1”, “0.2” for “0.05”, “antibodies.” for “antibodies. Subsequently the amount of phosphorylated substrate was evaluated by measurement of the resonance energy transfer from the anti-mouse-IgG-Eu-Chelate to the streptavidine-XL665. Therefore, the fluorescence emissions at 620 nm and 665 nm after excitation at 350 nm was measured in a HTRF reader, e.g. a Rubystar (BMG Labtechnologies, Offenburg, Germany) or a Viewlux (Perkin-Elmer).”
Sequence of RAC-beta serine/threonine-protein kinase (P31751 whole entry): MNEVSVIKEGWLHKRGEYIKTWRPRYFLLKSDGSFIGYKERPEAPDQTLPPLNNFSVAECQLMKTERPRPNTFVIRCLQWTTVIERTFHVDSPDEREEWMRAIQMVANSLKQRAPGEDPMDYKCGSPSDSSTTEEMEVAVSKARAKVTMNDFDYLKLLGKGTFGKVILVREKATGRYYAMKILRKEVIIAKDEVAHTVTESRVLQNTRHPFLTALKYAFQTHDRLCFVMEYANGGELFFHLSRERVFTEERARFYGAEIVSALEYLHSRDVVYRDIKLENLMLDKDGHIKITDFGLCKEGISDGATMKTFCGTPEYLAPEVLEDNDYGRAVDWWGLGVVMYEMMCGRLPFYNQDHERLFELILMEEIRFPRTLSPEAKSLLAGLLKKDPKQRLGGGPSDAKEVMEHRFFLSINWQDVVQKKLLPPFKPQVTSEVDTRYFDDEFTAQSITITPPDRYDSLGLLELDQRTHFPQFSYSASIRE

Sequence of RAC-alpha serine/threonine-protein kinase (P31749 whole entry): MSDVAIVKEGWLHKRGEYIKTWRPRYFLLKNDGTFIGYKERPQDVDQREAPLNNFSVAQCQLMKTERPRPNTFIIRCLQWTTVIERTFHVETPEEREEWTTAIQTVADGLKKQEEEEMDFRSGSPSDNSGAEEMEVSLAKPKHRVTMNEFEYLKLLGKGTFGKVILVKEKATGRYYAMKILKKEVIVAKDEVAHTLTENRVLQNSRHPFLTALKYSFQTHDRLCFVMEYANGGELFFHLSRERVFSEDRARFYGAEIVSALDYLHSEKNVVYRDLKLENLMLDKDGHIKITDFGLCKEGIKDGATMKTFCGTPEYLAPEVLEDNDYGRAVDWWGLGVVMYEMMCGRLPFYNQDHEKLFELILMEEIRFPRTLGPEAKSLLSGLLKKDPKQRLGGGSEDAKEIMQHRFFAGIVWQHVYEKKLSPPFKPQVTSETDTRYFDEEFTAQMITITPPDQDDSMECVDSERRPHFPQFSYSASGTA

| Structure (SMILES) | IC50 [1] [nM] | IC50 [2] [nM] |
| --- | --- | --- |
| NC(=O)c1ccnn2c(-c3ccccc3)c(-c3ccc(C4(N)CCC4)cc3)nc12 | 65 | 110 |
| NC1(c2ccc(-c3nc4ccc(C(F)(F)F)nn4c3-c3ccccc3)cc2)CCC1 | 120 | 70 |
| CCOc1nn2c(-c3ccccc3)c(-c3ccc(C4(N)CCC4)cc3)nc2c(C)c1C | 45 | 56 |
